The values that follow come from patent publication US20240075017A1 (priority 2021, published 2024).

This assay deals with SARS-CoV-2 (B.1.351, beta variant). Also noted: species or system C57BL/6 mice. The note with it: mouse, in vivo.

Consider `Nc1nccc2c1ncn2[C@@H]1C=C(CO)[C@@H](O)[C@H]1O` [DZNep, 3-deazaneplanocin A], for which the “abundance of viral transcripts N, M and E in lung RNA by RT-qPCR” value is reported as “significant DZNep-dependent reduction in abundance of viral transcripts”; the “lung infectious viral load (titration of lung homogenate supernatant on Vero E6 cells)” value was “significant reduction of the viral load in the lungs”.
